{
  "source": "patent US7888337B2",
  "about": "(priority 2007, dated 2011)",
  "key": {"[1]": {"system": "NIBRG-14 (H5N1) influenza A virus", "parameters": "species or system mice", "conditions": "mouse, in vivo"}, "[2]": {"system": "A/WSN/33 (H1N1) influenza virus", "conditions": "mouse, in vivo"}, "[3]": {"target": "NA from influenza virus A/Hanoi/30408/2005 (H5N1) (Influenza A virus (A/Hanoi/30408/2005(H5N1)), UniProt Q3C1C4)", "test": "biochemical"}, "[4]": {"system": "flu (A/WSN/1933) infection, H1N1", "test": "microbe, parasite or virus in culture", "assay_type": "cell-based, influenza A/WSN/1933 (H1N1)"}, "in vitro": {"test": "in vitro", "conditions": "dog"}, "[5]": {"target": "Neuraminidase (NA) from influenza virus A/WSN/1933 (H1N1) (Influenza A virus, UniProt P03470)", "sequence (P03470 whole entry, looked up)": "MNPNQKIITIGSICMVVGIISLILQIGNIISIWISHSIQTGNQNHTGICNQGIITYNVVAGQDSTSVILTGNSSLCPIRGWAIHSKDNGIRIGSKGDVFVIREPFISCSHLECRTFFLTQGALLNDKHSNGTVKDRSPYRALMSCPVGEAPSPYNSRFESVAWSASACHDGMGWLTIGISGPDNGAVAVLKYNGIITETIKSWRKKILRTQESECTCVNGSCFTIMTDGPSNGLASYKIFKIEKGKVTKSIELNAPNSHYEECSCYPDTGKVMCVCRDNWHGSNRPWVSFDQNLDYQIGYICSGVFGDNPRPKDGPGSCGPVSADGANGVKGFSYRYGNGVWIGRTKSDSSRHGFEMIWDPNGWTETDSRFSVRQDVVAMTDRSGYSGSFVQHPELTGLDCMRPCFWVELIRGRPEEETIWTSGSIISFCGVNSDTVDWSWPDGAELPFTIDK", "test": "biochemical", "assay_type": "biochemical"}, "[6]": {"system": "influenza A [A/WSN/33 (H1N1)] virus", "parameters": "species or system mice", "conditions": "mouse, in vivo; for efficacy at lower concentrations in comparison to compounds 3 and 13b: 0.01 mg/kg/day"}},
  "note": "Values joined by “and” are separate entries in the source; they are usually repeats but may differ in a detail not shown here. Identical values can stand only once. Like-named read-outs stand apart in the source and are kept apart here. Marks after values point to notes of the source that are not given here.",
  "data": [
    {"smiles": "CCOC(=O)C1=C[C@@H](OC(CC)CC)[C@H](NC(C)=O)[C@@H](N)C1", "note": "[Compound 1, Ethyl (3R,4R,5S)-4-acetamido-5-amino-3-(1-ethylpropoxy)-1-cyclohexene-1-carboxylate phosphate, reference compound]", "values": [
      {"measurement": "% Survivors, day 7", "setting": "[1]; phosphate", "value": "10 (100)^b % and 0 (40)^b % and 0 (0)^b %"},
      {"measurement": "% Survivors, day 14", "setting": "[1]; phosphate", "value": "10 (100)^b % and 0 (40)^b % and 0 (0)^b %"},
      {"measurement": "Mean day to death", "setting": "[1]; phosphate", "value": "9.4 days and 7.6 days and 5.3 days"}
    ]},
    {"smiles": "CCOP(=O)(OCC)C1=C[C@@H](OC(CC)CC)[C@H](NC(C)=O)[C@@H](N)C1", "note": "[Compound 3b, Diethyl (3R,4R,5S)-4-acetamido-5-amino-3-(1-ethylpropoxy)-1-cyclohexene-1-phosphonate]", "values": [
      {"measurement": "% Survivors, day 7", "setting": "[1]", "value": "0 (100)^b % and 0 (20)^b % and 0 (0)^b %"},
      {"measurement": "% Survivors, day 14", "setting": "[1]", "value": "0 (100)^b % and 0 (20)^b % and 0 (0)^b %"},
      {"measurement": "Mean day to death", "setting": "[1]", "value": "9.5 days and 7.3 days and 5.3 days and 4.9 days"},
      {"measurement": "% Survivors, day 7", "setting": "[2]", "value": "0 (100)^b % and 0 (60)^b % and 0 (30)^b %"},
      {"measurement": "% Survivors, day 14", "setting": "[2]", "value": "0 (100)^b % and 0 (60)^b % and 0 (30)^b %"}
    ]},
    {"smiles": "CCC(CC)O[C@@H]1C=C(C(=O)O)C[C@H](N)[C@H]1NC(C)=O", "note": "[Compound 2, (3R,4R,5S)-4-Acetamido-5-amino-3-(1-ethylpropoxy)-1-cyclohexene-1-carboxylic acid, reference compound]", "values": [
      {"measurement": "IC50", "setting": "[3]", "value": 62.9, "unit": "nM"},
      {"measurement": "EC50", "setting": "[4]; read-out: EC50", "value": 31.3, "unit": "nM"},
      {"measurement": "CC50", "setting": "in vitro", "value": "> 100000", "unit": "nM"}
    ]},
    {"smiles": "CCC(CC)O[C@@H]1C=C(P(=O)(O)O)C[C@H](NC(=N)N)[C@H]1NC(C)=O", "note": "[Compound 13b, Ammonium (3R,4R,5S)-4-acetamido-5-guanidinyl-3-(1-ethylpropoxy)-1-cyclohexene-1-phosphonate]", "values": [
      {"measurement": "IC50", "setting": "[3]", "value": 1.82, "unit": "nM"},
      {"measurement": "EC50", "setting": "[4]; Influenza A virus, MDCK", "value": 0.09, "unit": "nM"},
      {"measurement": "CC50", "setting": "in vitro", "value": "~5000", "unit": "nM"}
    ]},
    {"smiles": "CC(=O)N[C@H]1[C@H](O)C=C(C(=O)O)C[C@@H]1N", "note": "[Compound 14a, (3R,4R,5S)-4-Acetamido-5-amino-3-hydroxy-1-cyclohexene-1-carboxylic acid, reference compound]", "values": [
      {"measurement": "IC50", "setting": "[5]", "value": 36700, "unit": "nM"},
      {"measurement": "NAI activity in comparison with 2 and 3", "setting": "[5]", "value": "inferior NAI activity"}
    ]},
    {"smiles": "CC(=O)N[C@H]1[C@H](O)C=C(P(=O)(O)O)C[C@@H]1N", "note": "[Compound 14b, Ammonium (3R,4R,5S)-4-acetamido-5-amino-3-hydroxy-1-cyclohexene-1-phosphonate]", "values": [
      {"measurement": "IC50", "setting": "[5]", "value": 3200, "unit": "nM"},
      {"measurement": "NAI activity in comparison with 2 and 3", "setting": "[5]", "value": "inferior NAI activity"}
    ]},
    {"smiles": "CCC(CC)O[C@@H]1C=C(C(=O)O)C[C@H](NC(=N)N)[C@H]1NC(C)=O", "note": "[Compound 13a, (3R,4R,5S)-4-acetamido-5-guanidinyl-3-(1-ethylpropoxy)-1-cyclohexene-1-carboxylic acid, reference compound]", "values": [
      {"measurement": "IC50", "setting": "[3]", "value": 160, "unit": "nM"},
      {"measurement": "EC50", "setting": "[4]; Influenza A virus, MDCK", "value": 5.6, "unit": "nM"},
      {"measurement": "CC50", "setting": "in vitro", "value": "> 100000", "unit": "nM"}
    ]},
    {"smiles": "CCOP(=O)(O)C1=C[C@@H](OC(CC)CC)[C@H](NC(C)=O)[C@@H](N)C1.N", "note": "[Compound 3c, Ethyl (3R,4R,5S)-4-acetamido-5-amino-3-(1-ethylpropoxy)-1-cyclohexene-1-phosphonate ammonium salt]", "values": [
      {"measurement": "survival rate and body weight in comparison to compounds 3 and 13b", "setting": "[6]", "value": "improved survival rates and improved weight retention"},
      {"measurement": "efficacy at lower concentrations in comparison to compounds 3 and 13b", "setting": "[6]", "value": "equally ineffective"},
      {"measurement": "Mean day to death", "setting": "[6]; ammonium salt", "value": "9.3 days and 6.2 days and 4.8 days"}
    ]},
    {"smiles": "CCC(CC)O[C@@H]1C=C(P(=O)(O)O)C[C@H](N)[C@H]1NC(C)=O", "note": "[Compound 3, Ammonium (3R,4R,5S)-4-acetamido-5-amino-3-(1-ethylpropoxy)-1-cyclohexene-1-phosphonate]", "values": [
      {"measurement": "IC50", "setting": "[3]", "value": 13.3, "unit": "nM"},
      {"measurement": "EC50", "setting": "[4]; Influenza A virus, MDCK", "value": 4.67, "unit": "nM"},
      {"measurement": "% Survivors, day 7", "setting": "[1]", "value": "10 (100)^b % and 0 (60)^b % and 0 (0)^b %"},
      {"measurement": "% Survivors, day 14", "setting": "[1]", "value": "10 (100)^b % and 0 (60)^b % and 0 (0)^b %"},
      {"measurement": "Mean day to death", "setting": "[1]", "value": "9.1 days and 8.7 days and 5.6 days and 5.7 days"},
      {"measurement": "efficacy compared with Tamiflu by survival rate and mean survival time of mice", "setting": "[1]", "value": "at least equally effective"},
      {"measurement": "Mean day to death", "setting": "[6]", "value": "8.2 days and 5.9 days and 5.3 days"},
      {"measurement": "efficacy compared with Tamiflu by survival rate and mean survival time of mice", "setting": "[2]", "value": "more effective than Tamiflu"},
      {"measurement": "oral bioavailability in protecting mice against lethal challenge", "setting": "[2]; po", "value": "orally bioavailable"},
      {"measurement": "CC50", "setting": "in vitro", "value": 74000, "unit": "nM"}
    ]},
    {"smiles": "CCOP(=O)(O)C1=C[C@@H](OC(CC)CC)[C@H](NC(C)=O)[C@@H](NC(=N)N)C1.N", "note": "[Compound 13c, Ethyl (3R,4R,5S)-4-acetamido-5-guanidinyl-3-(1-ethylpropoxy)-1-cyclohexene-1-phosphonate ammonium salt]", "values": [
      {"measurement": "survival rate and body weight in comparison to compounds 3 and 13b", "setting": "[6]", "value": "improved survival rates and improved weight retention"},
      {"measurement": "efficacy at lower concentrations in comparison to compounds 3 and 13b", "setting": "[6]", "value": "equally ineffective"},
      {"measurement": "Mean day to death", "setting": "[6]; ammonium salt", "value": "6.8 days and 5.7 days"}
    ]}
  ]
}
